Laboratory results reported in patent publication US7592341B2, “Peptide-enhanced corneal drug delivery” (Kansas State University Research Foundation, priority 2004, dated 2009).
No end group written: not given here.

Legend:
MDCK monolayers = assay: Methotrexate uptake in epithelial monolayer experiments; format: cell-based, canine; conditions: peptide washout experiments in culture; LC-ESI-MS
Description: This example followed the procedures of the monolayer experiments of Example 1 in order to test the uptake of fluorescently labeled methotrexate (MTX) and MTX that was not fluorescently labeled. Enhanced uptake of the fluorescently labeld MTX was not observed during co-incubation due to adverse interactions between the peptide and the modified drugs. However, in peptide washout experiments in culture, MTX uptake increased by ten-fold. Measurement of the unlabeled MTX was performed using LC-ESI-MS and a standard MTX amount for calibration and comparison purposes.

corneal epithelium [1] = assay: Electron microscopy with ruthenium red of treated corneas (tight junction opening, morphology); conditions: 30 minute preincubation samples; for corneal epithelial morphology by EM: 200 μM peptide or 0.01% BAC
Description: In order to document the in situ opening of the tight junctions, peptide treated corneas were chemically fixed at the end of a dye transport assay for morphology studies. The control and test samples were treated with the dye ruthenium red, which binds to the plasma membrane of epithelium and cannot pass the tight junctions. […] As a control, the ophthalmic preservative benzalkonium chloride (BAC) was used in place of the peptide. […] NC-1059 (Seq. ID No. 1) was compared to BAC in a paired cornea experiment: 0.01% BAC solution and 200 μM ml of the peptide were incubated individually for either 15 or 30 minutes in the test chambers. The solutions were washed. 5 mL of BSS plus was added to both chambers and then spiked with 2 mL of CF. Sample aliquots were taken (100 μL) every half hour from the endothelial chamber for 6 hours. […] At the end of the experiment treated corneas were tested for residual internalized CF and then fixed for morphological analysis by EM. […] An EM study using ruthenium red to highlight the plasma membrane and grid staining to increase the contrast was performed on the 30 minute samples used to generate FIG. 5.

corneal epithelium [2] = conditions: rabbit, in vivo
Description: A series of in vivo corneal epithelial permeability experiments in unanaesthetized rabbits was also conducted. NC-1059 (Seq. ID No. 1) was prepared in BSS (200 μM) and placed inside the lower eyelid of one eye with the other eye receiving an equal amount of BSS alone. The solutions were held in place for 3 minutes and then washed with BSS. After the indicated incubation periods, both eyes received 300 μM NaF or CF and the dye was kept in place for 3 or 5 minutes. After the contact period the eyes were washed with 40 mL of BSS solution. Total uptake was measured for both the control and treated eyes with an OcuMetrics, Ocular Fluorophotometer. The fold changes between the peptide treated and untreated eyes were calculated (FIG. 7). […] It would also appear that adding the dye immediately after peptide exposure results in the highest permeation. […] The reduced uptake at the 6-hour time point documents the transient effects of the peptide in vivo. This transient effect has been observed under all assay conditions: in vitro, in situ and in vivo. In the final column, the fold increase is only 1.7±1.1 (n=2). Viewed alone, this fold increase is some-what misleading because the net amount of more hydrophobic NaF taken up in eyes is higher (7.8-fold) than with the CF dye.

[3] = test system: small intestine epithelia; conditions: reduction in epithelial resistance; cited from earlier work
corneal epithelium [4] = conditions: known; cited from earlier work
rabbit cornea = assay: Ex vivo transcorneal dye transport and corneal dye uptake in isolated rabbit cornea (perfusion chamber); conditions: for residual internalized CF in cornea: washed, 200 μM peptide or 0.01% BAC, FIG. 6
Description: For rabbit in vitro studies, corneas were obtained from eyes of New Zealand White rabbits weighing 5.0 to 5.5 kg, which were anesthetized and then killed by intracardiac injection of sodium pentobarbital (97.2 mg/kg). […] For a given pair of eyes, the epithelium was scraped from one of the corneas with a scalpel blade; on the opposite eye the epithelium was left intact. […] This method prevented trauma to the corneal epithelium and distortion of the corneal curvature during clamping in the acrylic-block perfusion system. The scleral rim serves as a gasket and permits the cornea to be suspended within the corneal ring.
The retina and pigment epithelium were removed and the cornea was clamped in the corneal holder. The exposed surface area for diffusion was 1.2 cm^2 for the cornea and 1.1 cm^2 for the sclera. The perfusion chamber was made of acrylic and placed in a water jacket to maintain the temperature of the cornea and perfusion medium at 35° C. A volume of 6 mL of balanced salt solution with oxidized glutathione (BBS Plus, Alcon Laboratories Inc, Fort Worth, Tex.) at pH 7.4 was placed in the endothelial chamber. The peptides were added to the balanced salt solution with oxidized glutathione at a concentration of 1 mM. Six milliliters of each solution was added to the epithelial chamber. […] Serial 0.5-mL samples were removed from each reservoir at 30-minute intervals, and after three hours at the termination of the permeability study, the remaining 3 mL was removed. […] The corneal permeability (P) was obtained by taking into account the volume (6 mL) of the endothelial chamber and the corneal area (square centimeters), as follows: P=kin endothelial chamber volume/corneal area.
Numerous paired sets of experiments were conducted using each of the two dyes. The paired experiments included a control cornea obtained from one of the eyes of a rabbit, which was bathed in the BSS+ buffer and given 100 μL of water at the start of the experiment. In the test cornea, from the second eye of the same rabbit, 100 μL of peptide was added at time zero to produce a 150-200 μM peptide solution in BSS+. Both the water and the peptide additions were made on the apical surface of the cornea. After 20-30 minutes of incubation, dye was added to the apical bathing solution (final concentration 300 μM of dye) and allowed to remain in contact with the cornea for 6 hours. […] At 30-minute intervals, 75-100 μL aliquots were removed from the endothelial bathing chamber and the concentration of the transported dye determined. In some later experiments the corneal surfaces were rinsed 2-3 times with fresh BSS+ (wash out) to remove unbound peptide prior to the addition of the dye. The peptide is added to the apical bathing chamber.

Molecule: CN(Cc1cnc2nc(N)nc(N)c2n1)c1ccc(C(=O)N[C@@H](CCC(=O)O)C(=O)O)cc1 [MTX, methotrexate]
- increase of MTX uptake (MDCK monolayers): ten-fold

Molecule: KKKKAARVGLGITTVLVTTIGLGVRAA [NC-1059]
- corneal epithelial morphology by EM (corneal epithelium [1]): normal healthy epithelial morphology

Molecule: Sodium Carboxy Fluorescein [NaF]
- net amount of NaF taken up in eyes relative to CF dye (corneal epithelium [2]): 7.8 fold

Molecule: ZOT: zonula occludens toxin of Vibrio cholerae, 399 a.a.
- onset of effects [3]: < 20 min

Molecule: benzalkonium chloride [BAC]
- depth of ruthenium red staining of multilayered corneal epithelium (corneal epithelium [1]): 4-5 layers
- corneal epithelial morphology by EM (corneal epithelium [1]): altered morphology with some cells appearing swollen
- concentration above which BAC causes cellular damage (corneal epithelium [4]): greater than 0.005%
- induced transport rates for CF in paired corneas, BAC vs NC-1059 (rabbit cornea; 15 min preincubation, FIG. 5A): appear identical
- residual internalized CF in cornea (rabbit cornea; 15 min preincubation): 27.8 µg
- residual internalized CF in cornea (rabbit cornea; 30 min preincubation): 40.7 µg
- induced CF translocation in paired corneas, BAC vs NC-1059 (rabbit cornea; 30 minutes preincubation, FIG. 5B): begins to promote increased CF translocation after the three-hour test point
